Measured values published in patent publication US20260085034A1, “N-(BENZHYDRYL)CYCLOALKYLCARBOXAMIDE DERIVATIVES AS INHIBITORS OF GLYCOGEN SYNTHASE 1 (GYS1) AND METHODS OF USE THEREOF” (Maze Therapeutics, Inc., priority 2022, published 2026).

System: glycogen synthesis in HeLa cells (hGYS1)
Assay: GYS1 cell based assay (glycogen digestion, Glucose-glo)
Settings: Homo sapiens, 24 h incubation, 20 mM glucose, geometric mean of at least 2 runs, read-out: Cellular IC50
Source text: The GYS1 cell based assay is a bioluminescent assay that quantifies the glucose resulting from glycogen digestion; the quantified glucose is an indirect measure of GYS1 glycogen synthesis. Newly synthesized glycogen is digested using Glucoamylase; the resulting glucose is quantified by using the Glucose-glo assay kit from Promega. Glucose-glo works by coupling glucose oxidation and NADH production with a bioluminescent system that is activated with NADH. Glucose is oxidized by Glucose dehydrogenase and the reaction reduces NAD+ to NADH; NADH activates Reductase which reduces a pro-luciferin Reductase Substrate to luciferin. Luciferin is detected in a luciferase reaction using Ultra-Glo rLuciferase and ATP, and the luminesce produced is proportional to the glucose in the sample. The luminescence is measured as a single point read in a plate reader.
Compounds that inhibit the hGYS1 enzyme and, subsequently, the glycogen synthesis in cells, were tested using assay ready plates (white, clear bottom 384 well plates) in a final DMSO reaction volume of 1% DMSO. Compounds in the assay ready plates were mixed with media with no additives, except for 20 mM glucose prior to cell addition. HeLa cells were starved in media with no additives, except for 1× Glutamax for 24 h. Starved HeLa cells were plated, in a 1:1 ratio to the media in the assay ready plate and incubated for 24 h at 37° C. and 5% CO2. Cells were washed in 1×PBS buffer and lysed in lysis buffer containing 50% 1×PBS and 25% 0.3 N HCl of the final volume in the well or reaction volume; cells were incubated with lysis buffer for 10 minutes and quenched with the remaining 25% of the reaction volume that consisted of 450 mM Tris pH 8.0. Lysates were mixed in a 1:1 ratio with Glucoamylase in 100 mM Sodium Acetate buffer, pH 5.3; the mixture was incubated for 1 h at 37° C. The digested lysate was mixed in a 1:1 ratio with Glucose-glo detection mixture as per vendor recommendations (Luciferase detection buffer, Reductase, Reductase substrate, Glucose dehydrogenase, and NAD) in read-out plates (solid white 384-well plates) and incubated for 1 h at RT. The plates were read using a plate reader with luminescence capabilities. Each compound concentration Relative Luminescence Unit (RLU) was averaged and normalized to the average RLU of the positive and negative controls to obtain a percentage inhibition. The normalized data vs. concentration was plotted; to determine the half-maximal concentration (IC50), the Levenberg-Marquardt algorithm was used to fit a Hill equation to the dose response data.
The results are shown in Table 4 below, which reports the IC50 of each compound. Unless otherwise specified, IC50 values are reported as the geometric mean of at least 2 assay runs on separate days. As shown in the table below, the compounds of the present invention are potent inhibitors of human GYS1. […] Each run represents the average of a technical replicate, where each compound was assayed twice in the same plate.

CC(C)c1ccc([C@@H](NC(=O)[C@H]2C[C@@H]2F)c2ccn[nH]2)cc1F (single isomer, unassigned) [compound 11]
IC50: 3.28 µM
